Like-named read-outs stand apart in the source and are kept apart here.
Assays:
[1] = tested on: recombinant rabies virus 1088 strain expressing Gaussia Luciferase (GLuc) (1088/GLuc); assay type: cell-based
[2] = tested on: mouse neuroblastoma cell strain Neuro-2A; experiment: Anti-cancer cell activity evaluation (minimum inhibitory concentration with respect to cells); assay type: cell-based; conditions: MIC, 3 days
[3] = compounds of formula XXIIB and formula XXIIF
[4] = compounds of formula XXIIB and formula XXIIF (continuation)

Compound: CC(C)CN1CC2CC3(C(=O)NCc4cccc(F)c4)NCC2C1C3CCCCc1ccccc1 (centres unmarked) [IF-896]
- IC50 ([1]; read-out: Anti-rabies activity): < 5 µM
- Anti-cancer cell activity ([2]; compounds of formula XXIF): b (b if greater than 10 µM and less than or equal to 20 µM)

Compound: COc1ccc(CNC(=O)[C@]23NC[C@@H]4C[C@H]2CN(CC(C)C)[C@H]3[C@@H]4CCc2ccccc2)cc1 (relative stereo) [IB-927]
- IC50 ([1]; read-out: Anti-rabies activity): < 5 µM
- Anti-cancer cell activity ([2]; compounds of formula XXIB): c (c if greater than 20 µM and less than or equal to 40 µM)

Compound: CC(C)CN1CC2CC3(C(=O)NCc4ccccc4)NCC2C1C3CCCCc1ccccc1 (centres unmarked) [IF-899]
- IC50 ([1]; read-out: Anti-rabies activity): 5 to 10 µM
- Anti-cancer cell activity ([2]; compounds of formula XXIF): c (c if greater than 20 µM and less than or equal to 40 µM)

Compound: CC(C)CN1CC2CC3CNC2(C(=O)NCCc2ccccc2)C1C3CCc1ccccc1 (centres unmarked) [IB-957]
- IC50 ([1]; read-out: Anti-rabies activity): < 5 µM
- Anti-cancer cell activity ([2]; compounds of formula XXIB): c (c if greater than 20 µM and less than or equal to 40 µM)

Compound: CC(C)CN1C[C@@H]2C[C@H]3CN[C@]2(C(=O)NCc2ccc4ccccc4c2)[C@@H]1[C@@H]3CCc1ccccc1 (relative stereo) [IB-929]
- IC50 ([1]; read-out: Anti-rabies activity): < 5 µM
- Anti-cancer cell activity ([2]; compounds of formula XXIB): b (b if greater than 10 µM and less than or equal to 20 µM)

Compound: CC(C)CN1CC2CC3C=NC2(C(=O)NCc2cccc(F)c2)C1C3CCCCc1ccccc1 (centres unmarked) [IIB-343]
- IC50 ([1]; read-out: Anti-rabies activity): < 5 µM
- Anti-cancer cell activity [2, 3]: c (c if greater than 20 µM and less than or equal to 40 µM)

Compound: CC(C)CN1CC2CC3C=NC2(C(=O)NCc2ccc(Cl)cc2)C1C3CCc1ccccc1 (centres unmarked) [IIB-331]
- IC50 ([1]; read-out: Anti-rabies activity): < 5 µM
- Anti-cancer cell activity [2, 3]: c (c if greater than 20 µM and less than or equal to 40 µM)

Compound: COc1cccc(CNC(=O)C23N=CC4CC2CN(CC(C)C)C3C4CCCCc2ccccc2)c1 (centres unmarked) [IIB-345]
- IC50 ([1]; read-out: Anti-rabies activity): < 5 µM
- Anti-cancer cell activity [2, 3]: c (c if greater than 20 µM and less than or equal to 40 µM)

Compound: CC(C)CN1C[C@@H]2C[C@H]3CN[C@]2(C(=O)NCc2cccc(F)c2)[C@@H]1[C@@H]3CCCc1ccccc1 (relative stereo) [IB-932]
- IC50 ([1]; read-out: Anti-rabies activity): < 5 µM
- Anti-cancer cell activity ([2]; compounds of formula XXIB): c (c if greater than 20 µM and less than or equal to 40 µM)

Compound: COc1cccc(CNC(=O)[C@]23NC[C@@H]4C[C@H]2CN(CC(C)C)[C@H]3[C@@H]4CCCc2ccccc2)c1 (relative stereo) [IB-934]
- IC50 ([1]; read-out: Anti-rabies activity): < 5 µM
- Anti-cancer cell activity ([2]; compounds of formula XXIB): b (b if greater than 10 µM and less than or equal to 20 µM)

Compound: CC(C)CN1C[C@H]2C[C@]3(C(=O)NCc4cccc(Cl)c4)N=C[C@H]2[C@H]1[C@H]3CCc1ccccc1 (relative stereo) [IIF-331]
- IC50 ([1]; read-out: Anti-rabies activity): < 5 µM
- Anti-cancer cell activity [2, 4]: c (c if greater than 20 µM and less than or equal to 40 µM)

Compound: CC(C)CN1CC2CC3C=NC2(C(=O)NCc2cccc(Cl)c2)C1C3CCc1ccccc1 (centres unmarked) [IIB-332]
- IC50 ([1]; read-out: Anti-rabies activity): < 5 µM
- Anti-cancer cell activity [2, 3]: b (b if greater than 10 µM and less than or equal to 20 µM)

Compound: CC(C)CN1C[C@H]2C[C@]3(C(=O)NCc4ccc(Cl)cc4)N=C[C@H]2[C@H]1[C@H]3CCc1ccccc1 (relative stereo) [IIF-330]
- IC50 ([1]; read-out: Anti-rabies activity): < 5 µM
- Anti-cancer cell activity [2, 4]: c (c if greater than 20 µM and less than or equal to 40 µM)

Compound: CC(C)CCN1CC2CC3(C(=O)NCc4cccc(F)c4)NCC2C1C3CCCc1ccccc1 (centres unmarked) [IF-900]
- IC50 ([1]; read-out: Anti-rabies activity): < 5 µM
- Anti-cancer cell activity ([2]; compounds of formula XXIF): c (c if greater than 20 µM and less than or equal to 40 µM)

Compound: CC(C)CN1C[C@@H]2C[C@H]3CN[C@]2(C(=O)NCc2ccccc2)[C@@H]1[C@@H]3CCCCc1ccccc1 (relative stereo) [IB-939]
- IC50 ([1]; read-out: Anti-rabies activity): < 5 µM
- Anti-cancer cell activity ([2]; compounds of formula XXIB): c (c if greater than 20 µM and less than or equal to 40 µM)

Compound: CC(C)CN1C[C@@H]2C[C@H]3CN[C@]2(C(=O)NCc2cccc(Cl)c2)[C@@H]1[C@@H]3CCCCc1ccccc1 (relative stereo) [IB-935]
- IC50 ([1]; read-out: Anti-rabies activity): < 5 µM
- Anti-cancer cell activity ([2]; compounds of formula XXIB): c (c if greater than 20 µM and less than or equal to 40 µM)

Compound: Cc1ccc(CNC(=O)C23N=CC4CC2CN(CC(C)C)C3C4CCc2ccccc2)cc1 (centres unmarked) [IIB-334]
- IC50 ([1]; read-out: Anti-rabies activity): < 5 µM
- Anti-cancer cell activity [2, 3]: c (c if greater than 20 µM and less than or equal to 40 µM)

Compound: CC(C)CN1CC2CC3C=NC2(C(=O)NCc2ccc4ccccc4c2)C1C3CCc1ccccc1 (centres unmarked) [IIB-335]
- IC50 ([1]; read-out: Anti-rabies activity): < 5 µM
- Anti-cancer cell activity [2, 3]: c (c if greater than 20 µM and less than or equal to 40 µM)

Compound: CC(C)CN1CC2CC3C=NC2(C(=O)NCc2cccc(F)c2)C1C3CCCc1ccccc1 (centres unmarked) [IIB-338]
- IC50 ([1]; read-out: Anti-rabies activity): < 5 µM
- Anti-cancer cell activity [2, 3]: c (c if greater than 20 µM and less than or equal to 40 µM)

Compound: CC(C)CN1CC2CC3(C(=O)NCc4cccc(Cl)c4)NCC2C1C3CCCCc1ccccc1 (centres unmarked) [IF-895]
- IC50 ([1]; read-out: Anti-rabies activity): < 5 µM
- Anti-cancer cell activity ([2]; compounds of formula XXIF): b (b if greater than 10 µM and less than or equal to 20 µM)

Compound: Cc1cccc(CNC(=O)C23N=CC4CC2CN(CC(C)C)C3C4CCCCc2ccccc2)c1 (centres unmarked) [IIB-344]
- IC50 ([1]; read-out: Anti-rabies activity): < 5 µM
- Anti-cancer cell activity [2, 3]: b (b if greater than 10 µM and less than or equal to 20 µM)

Compound: CC(C)CN1CC2CC3C=NC2(C(=O)NCc2ccccc2)C1C3CCCCc1ccccc1 (centres unmarked) [IIB-346]
- IC50 ([1]; read-out: Anti-rabies activity): < 5 µM
- Anti-cancer cell activity [2, 3]: b (b if greater than 10 µM and less than or equal to 20 µM)

Compound: CC(C)CN1C[C@@H]2C[C@H]3CN[C@]2(C(=O)NCc2ccc(Cl)cc2)[C@@H]1[C@@H]3CCc1ccccc1 (relative stereo) [IB-925]
- IC50 ([1]; read-out: Anti-rabies activity): < 5 µM
- Anti-cancer cell activity ([2]; compounds of formula XXIB): c (c if greater than 20 µM and less than or equal to 40 µM)

Compound: Cc1cccc(CNC(=O)[C@]23NC[C@@H]4C[C@H]2CN(CC(C)C)[C@H]3[C@@H]4CCCCc2ccccc2)c1 (relative stereo) [IB-937]
- IC50 ([1]; read-out: Anti-rabies activity): < 5 µM
- Anti-cancer cell activity ([2]; compounds of formula XXIB): c (c if greater than 20 µM and less than or equal to 40 µM)

Compound: Cc1cccc(CNC(=O)C23CC4CN(CC(C)C)C(C4CN2)C3CCCCc2ccccc2)c1 (centres unmarked) [IF-897]
- IC50 ([1]; read-out: Anti-rabies activity): < 5 µM
- Anti-cancer cell activity ([2]; compounds of formula XXIF): b (b if greater than 10 µM and less than or equal to 20 µM)

Compound: CC(C)CN1C[C@@H]2C[C@H]3CN[C@]2(C(=O)NCc2cccc(Cl)c2)[C@@H]1[C@@H]3CCCc1ccccc1 (relative stereo) [IB-931]
- IC50 ([1]; read-out: Anti-rabies activity): < 5 µM
- Anti-cancer cell activity ([2]; compounds of formula XXIB): c (c if greater than 20 µM and less than or equal to 40 µM)

Compound: CC(C)CN1CC2CC3C=NC2(C(=O)NCc2cccc(Cl)c2)C1C3CCCCc1ccccc1 (centres unmarked) [IIB-342]
- IC50 ([1]; read-out: Anti-rabies activity): 5 to 10 µM
- Anti-cancer cell activity [2, 3]: b (b if greater than 10 µM and less than or equal to 20 µM)

Compound: CC(C)CCNC(=O)[C@@]12C[C@@H]3CN(Cc4ccccc4)[C@@H]([C@@H]3CN1)[C@H]2Cc1ccccc1 (relative stereo) [IF-665]
- IC50 ([1]; read-out: Anti-rabies activity): < 5 µM

Compound: CC(C)CC[C@@H]1[C@@H]2[C@@H]3CN[C@@]1(C(=O)NCc1ccc(O)cc1)C[C@@H]3CN2CCc1ccccc1 (relative stereo) [IF-468]
- IC50 ([1]; read-out: Anti-rabies activity): 10 to 30 µM

Compound: CC(C)CNC(=O)[C@@]12C[C@@H]3CN(Cc4ccc(F)cc4)[C@@H]([C@@H]3CN1)[C@H]2Cc1ccccc1 (relative stereo) [IF-653]
- IC50 ([1]; read-out: Anti-rabies activity): 10 to 30 µM

Compound: CC(C)CC[C@@H]1[C@@H]2[C@@H]3CN[C@@]1(C(=O)NCc1ccc(O)cc1)C[C@@H]3CN2CC1CCCCC1 (relative stereo) [IF-474]
- IC50 ([1]; read-out: Anti-rabies activity): < 5 µM

Compound: CCCCCCNC(=O)[C@]12NC[C@@H]3C[C@H]1CN(CC(N)=O)[C@H]2[C@@H]3Cc1ccccc1 (relative stereo) [IB-105]
- IC50 ([1]; read-out: Anti-rabies activity): 10 to 30 µM

Compound: CC(C)CCNC(=O)[C@]12NC[C@@H]3C[C@H]1CN(CC(C)C)[C@H]2[C@@H]3Cc1ccccc1 (relative stereo) [IB-780]
- IC50 ([1]; read-out: Anti-rabies activity): < 5 µM

Compound: CC(C)C[C@@H]1[C@@H]2CN[C@@]3(C(=O)NCc4cccc5ccccc45)[C@@H](C2)CN(CCCNC(=N)N)[C@@H]13 (relative stereo) [IB-164, (3S*, 3aS*, 6R*, 7R*, 7aS*)-1-(3-guanidinopropyl)-7-isobutyl-N-(naphthalen-1-ylmethyl)octahydro-3aH-3,6-methanopyrrolo[3,2-b]pyridine-3a-carboxamide]
- IC50 ([1]; read-out: Anti-rabies activity): < 5 µM

Compound: CC(C)C[C@@H]1[C@@H]2CN[C@@]3(C(=O)NCc4ccccc4)[C@@H](C2)CN(Cc2ccc(O)cc2)[C@@H]13 (relative stereo) [IB-787]
- IC50 ([1]; read-out: Anti-rabies activity): 10 to 30 µM

Compound: N=C(N)NCCC[C@@H]1[C@@H]2[C@@H]3CN[C@@]1(C(=O)NCc1ccccc1)C[C@@H]3CN2Cc1cccc2ccccc12 (relative stereo) [IF-236]
- IC50 ([1]; read-out: Anti-rabies activity): 10 to 30 µM

Compound: Cc1ccc(CN2CC3CC4CN(C(=O)CC(C)C)C3(C(=O)NCc3ccccc3)C2C4CC(C)C)cc1 (centres unmarked) [IB-883]
- IC50 ([1]; read-out: Anti-rabies activity): < 5 µM

Compound: CC(C)CC1C2CNC3(C(=O)NCc4ccccc4)C(C2)CN(Cc2ccc(Cl)cc2)C13 (centres unmarked) [IB-864]
- IC50 ([1]; read-out: Anti-rabies activity): 5 to 10 µM

Compound: O=C(NCc1cccc2ccccc12)[C@@]12C[C@@H]3CN(Cc4ccc(O)cc4)[C@@H]([C@@H]3CN1)[C@H]2Cc1cccc2ccccc12 (relative stereo) [IF-779]
- IC50 ([1]; read-out: Anti-rabies activity): 10 to 30 µM

Compound: CC(C)CNC(=O)[C@]12NC[C@@H]3C[C@H]1CN(CCc1ccccc1)[C@H]2[C@@H]3Cc1ccc(O)cc1 (relative stereo) [IB-625]
- IC50 ([1]; read-out: Anti-rabies activity): 10 to 30 µM

Compound: CC(C)NC(=O)[C@@]12C[C@@H]3CN(Cc4cccc5ccccc45)[C@@H]([C@@H]3CN1)[C@H]2CCCNC(=N)N (relative stereo) [IF-244]
- IC50 ([1]; read-out: Anti-rabies activity): < 5 µM

Compound: CC(C)CCN1CC2CC3(C(=O)NCc4ccccc4)NCC2C1C3Cc1ccccc1 (centres unmarked) [IF-9]
- IC50 ([1]; read-out: Anti-rabies activity): 10 to 30 µM
- IC50 ([1]; read-out: IC50): 15.6 µM

Compound: CC(C)CCN1C[C@H]2C[C@]3(C(=O)NCc4ccc(F)cc4)NC[C@H]2[C@H]1[C@H]3CC(C)C (relative stereo) [IF-548]
- IC50 ([1]; read-out: Anti-rabies activity): 10 to 30 µM
